Measured values: patent US9241885B2, “Oral care compositions comprising increased bioavailable levels of quaternary ammonium antimicrobials” (THE PROCTER & GAMBLE COMPANY, priority 2004, dated 2016)

Test: Disk Retention Assay (DRA) of CPC bioavailability in mouthrinse formulations
Assay type: in vitro ADME
Details: mouthrinse formulation
Text: In evaluating bioavailability and biological activity of quaternary ammonium antimicrobials in mouthwash formulations, an in vitro Disk Retention Assay (DRA) can be used to estimate drug bioavailability as well as an ex vivo Plaque Glycolysis and Regrowth Model (PGRM) to assess biological activity (S. J. Hunter-Rinderle, et al., “Evaluation of Cetylpyridinium Chloride-Containing Mouthwashes Using In Vitro Disk Retention and Ex Vivo Plaque Glycolysis Methods,” J. Clin. Den., 1997, 8:107-113). These assays are recommended for use in the proposed OTC monograph (Federal Register Vol. 68, No. 103 Part 356, “Oral Health Care Drug Products For Over-The-Counter Human Use; Antigingivitis/Antiplaque Drug Products; Establishment of a Monograph: Proposed Rules”).
This method is designed as a performance assay to analyze mouthrinse formulations containing from about 0.03% to about 0.1% CPC to quantitatively determine the “free” (“unbound”) or “bioavailable” level of CPC needed for clinical efficacy. The DRA assay measures the amount of CPC “binding” to standardized cellulose filter disks during filtration of an undiluted mouthrinse sample. The “bioavailable” CPC binds to the hydroxyl groups on the cellulose fiber during filtration while CPC, which has been rendered “non-bioavailable” (or “bound”)” through interactions with mouthrinse components, simply passes through the filter paper, i.e., the positive charge on the compound is no longer available for binding to the negatively charged cellulose disks. In this way, the DRA test provides an estimate of the amount of CPC available for binding to bacteria and mucosal surfaces during use of the mouthrinse. DRA measurements of CPC availability have been positively correlated to the results of in vitro microbiological assays and in vivo germ kill tests. Historically, cellulose fibers have been used in other applications to similarly monitor biological activity of drug actives (“Dairy Products” in Official Methods of Analysis of the Association of […] Analytical Chemists. 13th ed., 1980, Chapter 16:256).
“Bioavailable” CPC is the amount of CPC bound to or adsorbed to cellulose disks. This is determined by measuring the differences in CPC concentration in the mouthrinse before and after exposure to standardized cellulose disks. The method has been validated and shown to perform with acceptable accuracy, precision, and selectivity. A more detailed description of the test is provided below.
For example, a formulation comprising 0.05% CPC at 72% bioavailability would provide 360 ppm CPC. […] Determination of CPC bioavailability in a finished product is important to product performance as it readily defines the amount (concentration) of active available for deposition at the site of action. Because the positively charged (cationic) hydrophilic region is critical to antimicrobial activity, any formulation component that diminishes the activity of this cationic group or that competes with the group may inactivate the product.
Desirably, a formulation containing 0.05% CPC would have at least about 65% bioavailability to deliver at least about 324 ppm bioavailable CPC. A formulation containing a lower level of CPC such as 0.04% would need to have at least about 81% bioavailability to deliver the minimum required level of bioavailable CPC for efficacy.

Structure (SMILES): CCCCCCCCCCCCCCCC[n+]1ccccc1 [CPC, cetylpyridinium chloride]
- % bioavailable CPC (0.0 % Poloxamer): 94.24%
- % bioavailable CPC (0.05 % Poloxamer): 84.42%
- % bioavailable CPC (0.1 % Poloxamer): 61.14%
- % bioavailable CPC (0.15 % Poloxamer): 57.49%
- % bioavailable CPC (0.2 % Poloxamer): 52.96%
- % bioavailable CPC (0.25 % Poloxamer): 53.14%
- % bioavailable CPC (0.5 % Poloxamer): 42.63%
- % bioavailable CPC (0.75 % Poloxamer): 38.4%
- % bioavailable CPC (1.00 % Poloxamer): 35.09%
- bioavailability of CPC (level of 0.1% surfactant (Poloxamer) or higher): unacceptable bioavailability
